Literature values as cited in patent US9468626B2, “Melatonin-based formulations for parenteral administration” (CHIESI FARMACEUTICI S.p.A., priority 2014, dated 2016).

Key:
[1] = exposed to light or oxygen
[2] = in vivo
[3] = system: newborn piglets; conditions: intravenously, 5 mg/kg/h

- oral bioavailability [2]: low and very variable
- solubility in water: poorly soluble in water
SMILES: COc1ccc2[nH]cc(CCNC(C)=O)c2c1 [melatonin, N-[2-(5-Methoxy-1H-indol-3-yl)ethyl]acetamide]
- stability in aqueous solution [1]: not stable when exposed to light or oxygen
- hypothermic neuroprotection [3]: increases hypothermic neuroprotection
